# Laboratory results from patent publication US12612426B2, “Aryl glucoside derivative” (Shanghai Zheye Biotechnology Co. Ltd., priority 2020, dated 2026).
# Assays:
# SGLT1 [1] = target: T1, SGLT1 (Homo sapiens, UniProt P13866); experiment: SGLT1 inhibitor activity experiment 1; type: cell-based
# T1 sequence (P13866 1-664): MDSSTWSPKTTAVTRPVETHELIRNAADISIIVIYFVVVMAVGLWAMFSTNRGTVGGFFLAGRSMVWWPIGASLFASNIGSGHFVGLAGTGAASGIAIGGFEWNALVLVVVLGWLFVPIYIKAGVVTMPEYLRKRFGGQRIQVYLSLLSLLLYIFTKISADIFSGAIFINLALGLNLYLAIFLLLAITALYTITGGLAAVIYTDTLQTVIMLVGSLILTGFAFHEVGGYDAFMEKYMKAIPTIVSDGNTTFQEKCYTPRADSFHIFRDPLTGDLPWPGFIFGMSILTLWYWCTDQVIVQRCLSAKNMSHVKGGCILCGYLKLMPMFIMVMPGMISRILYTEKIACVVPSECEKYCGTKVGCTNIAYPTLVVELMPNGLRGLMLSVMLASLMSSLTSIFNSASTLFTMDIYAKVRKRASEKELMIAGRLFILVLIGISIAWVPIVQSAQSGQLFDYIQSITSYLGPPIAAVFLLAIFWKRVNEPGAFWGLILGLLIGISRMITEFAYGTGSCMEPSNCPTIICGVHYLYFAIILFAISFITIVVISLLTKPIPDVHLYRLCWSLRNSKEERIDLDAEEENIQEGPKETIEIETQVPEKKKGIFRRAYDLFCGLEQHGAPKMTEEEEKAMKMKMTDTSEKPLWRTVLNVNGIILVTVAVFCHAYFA
# Protocol: The inhibitory activity of SGLT1 was tested with reference to the method described in document (Journal of Medicinal Chemistry 2017, 60, 710-721, Discovery of LX2761, a Sodium-Dependent Glucose Cotransporter 1 (SGLT1) Inhibitor Restricted to the Intestinal Lumen, for the Treatment of Diabetes).
# SGLT1 [2] = target: T1, SGLT1; experiment: hSGLT1 inhibitor activity experiment 2: 2-NBDG uptake by HEK293 cells stably expressing human SGLT1; type: cell-based; set-up: expressed in transfected cells; conditions: read-out: SGLT1 Inhibitory Activity
# Protocol: Inhibitory activity testing was performed with reference to a similar method described in document [Acta Pharmaceutica Sinica 2017, 52 (6): 897-903; Nature Protocols (2007), 2(3), 753-762; Journal of Biochemical and Biophysical Methods (2005), 64(3), 207-215; Diabetes Technology & Therapeutics (2011), 13(7), 743-775].
# In this experiment, the in vitro activity assay was evaluated using the uptake of 2-NBDG (2-Deoxy-2-[(7-nitro-2,1,3-benzoxadiazol-4-yl)amino]-D-glucose, CAS NO: 186689-07-6) by human embryonic kidney epithelial cells (HEK293, stably expressing human SGLT1), and the SGLT1 inhibitory activity of the target compound was determined by measuring its half-maximal inhibitory concentration (IC50).
# HEK293 cells that can stably express human SGLT1 gene were inoculated into a 96-well clear-bottom black plate containing DMEM medium. The cells were incubated at 37° C., 5% CO2 in a cell incubator. The medium in the 96-well plate was aspirated, and the plate was treated with low-glucose serum-free DMEM medium, and washed once with non-specific uptake buffer and once with Na^+-dependent uptake buffer. Uptake buffer containing test compound was added to each well of cells, followed by uptake buffer containing 2-NBDG for glucose uptake, and the cell plate was incubated at 37° C., 5% CO2. The compounds were gradiently diluted. The uptake reaction was stopped by removing the culture medium, and after washing the cells with ice-cold uptake buffer, the washing solution was removed. The cells were lysed by adding NaOH, and the content of 2-NBDG in the cells was detected by a fluorescence microplate reader. The protein concentration of the lysate was measured by BCA method, the uptake of 2-NBDG was quantified by fluorescence intensity/protein content, and the obtained data were analyzed using GraphPad Prism to determine the median inhibitory concentration (IC50) of the compound to be tested. […]
# [3] = Oral glucose tolerance test (OGTT) after continuous administration in rats for 14 days; type: in vivo, SD rats; conditions: for blood sugar level in OGTT: 0.009 mg/kg oral gavage for 14 days, OGTT on day 15; for loose stools: 0.009 mg/kg oral gavage, within 48 hours before and after the experiment
# Protocol: • Experimental animals: SPF male SD rats; • Compound preparation: an appropriate amount of the compounds of Example 1, Example 3, and Example 4 were weighed, and uniformly suspended with an appropriate amount of 0.5% CMC-Na solution; • Preparation of glucose solution: an appropriate amount of glucose powder was weighed and dissolved with an appropriate amount of pure water; • Dosage and method of administration: 0.009 mg/kg, oral gavage.
# Experimental process: the animals were fed a normal diet with consecutive administration for 14 days, and the glucose tolerance test was performed on day 15, blood glucose was detected before administration (−30 min), before giving glucose (0 min), and 10, 30, 60, and 120 min after giving glucose solution, and the defecation of animals was observed.
# [4] = Pharmacokinetic study in rats; type: in vivo, SD rats; conditions: 10 mg/kg oral gavage
# Protocol: 5. Pharmacokinetic Study in Rats • Experimental animals: SPF male SD rats; • Dosage and method of administration: 10 mg/kg, oral gavage. • Research compound: Dapagliflozin, the compound of Example 4, the compound of Example 6, and the comparative compound 6; • Test method: Before administration (0), and 1, 4, 8, and 24 hours after administration, 0.2 ml of blood was collected from orbital venous plexus, anticoagulated with heparin, and plasma was collected.
# Note: The comparative compound 6 is the compound numbered “6” in the document (Journal of Medicinal Chemistry 2017, 60, 710-721, Discovery of LX2761, a Sodium-Dependent Glucose Cotransporter 1 (SGLT1) Inhibitor Restricted to the Intestinal Lumen, for the Treatment of Diabetes). It was prepared and identified according to the synthetic method described in the document.
# [5] = Lipid and water solubility of click-chemistry candidate compound compared with Example 4; type: physicochemical
# Source text: The compound of Example 4, copper sulfate, and a cyclopropyl azide compound (refer to Chemische Berichte (1985), 118(4), 1564-1574; Science of Synthesis (2010), 41, 543-612; Nature (London, United Kingdom) (2019), 574(7776), 86-89) were stirred and reacted at room temperature, and after the reaction was completed, target compounds could be prepared by silica gel column chromatography. Rf: 0.16 (dichloromethane:methanol=10:1).
SMILES,IC50 (SGLT1 [1]),IC50 (SGLT1 [2]),other results
C#CCN(C)CCNC(=O)C(C)(C)NC(=O)C/C=C/c1ccc(Cc2cc([C@@H]3O[C@H](SC)[C@@H](O)[C@H](O)[C@H]3O)ccc2C)cc1 [Example 7],< 50 nM,–,–
C#CCN(C)CCNC(=O)C(C)(C)NC(=O)CCOc1ccc(Cc2cc([C@@H]3O[C@H](SC)[C@@H](O)[C@H](O)[C@H]3O)ccc2C)cc1 [Example 5],< 50 nM,–,–
CS[C@H]1O[C@@H](c2ccc(C)c(Cc3ccc(CCCC(=O)NC(C)(C)C(=O)NCCN4CCN(C)CC4)cc3)c2)[C@H](O)[C@@H](O)[C@@H]1O [Example 2],–,1.27 nM,–
C#CCN(C)CCNC(=O)C(C)(C)NC(=O)CCOc1ccc(Cc2cc([C@@H]3O[C@H](SC)[C@@H](O)[C@H](O)[C@H]3O)ccc2C#C)cc1 [Example 8],< 50 nM,–,–
CS[C@H]1O[C@@H](c2ccc(C)c(Cc3ccc(CCCC(=O)NC(C)(C)C(=O)NCCN(C)Cc4ccccc4)cc3)c2)[C@H](O)[C@@H](O)[C@@H]1O [Example 3],–,0.83 nM,blood sugar level in OGTT [3]: significantly reduce the blood sugar level of rats; loose stools [3]: no loose stools were observed
C#CCN(C)CCNC(=O)C(C)(C)NC(=O)CCOCc1ccc(Cc2cc([C@@H]3O[C@H](SC)[C@@H](O)[C@H](O)[C@H]3O)ccc2C)cc1 [Example 6],< 50 nM,–,drug concentration in plasma [4]: did not reach the detection limit
CS[C@H]1O[C@@H](c2ccc(C)c(Cc3ccc(CCCC(=O)NC(C)(C)C(=O)NCCN(C)Cc4cn(C5CC5)nn4)cc3)c2)[C@H](O)[C@@H](O)[C@@H]1O,–,–,lipid solubility compared with Example 4 [5]: better; water solubility compared with Example 4 [5]: better
CS[C@H]1O[C@@H](c2ccc(C)c(Cc3ccc(CCCC(=O)NC(C)(C)C(=O)NCCN4CCCC4)cc3)c2)[C@H](O)[C@@H](O)[C@@H]1O [Example 1],–,0.67 nM,blood sugar level in OGTT [3]: significantly reduce the blood sugar level of rats; loose stools [3]: no loose stools were observed
